Literature values as cited in patent publication US9636301B2, “In vitro release assay for liposome encapsulated vincristine” (ARBUTUS BIOPHARMA CORPORATION, priority 2012, dated 2017).

Settings: water

In the case of “22-oxovincaleukoblastine [Vincristine sulfate]”, the solubility is listed as “soluble in water”.
